What was measured:
[1] = biological target: T1, ImmunoPure avidin (Pierce) outfitted with xanthone ET-sensitizer (Gallus gallus, UniProt P02701); assay: Photolytic tag-release binding screen of the tag-encoded model mini-library with avidin-xanthone conjugate in DPC micelles, GCMS detection of released dithiane tags; settings: for dithiane tags encoding the library member detected in the GCMS chromatogram after the photolytic assay: dithiane-aldehyde adduct tags, 0.7 mM each tagged library member, 23 μM protein, 155 mM DPC, incubated 1 hour, irradiated 4 hours, 335 nm long pass filter, hexane extract
T1 construct: purchased Pierce
T1 sequence (P02701 25-152): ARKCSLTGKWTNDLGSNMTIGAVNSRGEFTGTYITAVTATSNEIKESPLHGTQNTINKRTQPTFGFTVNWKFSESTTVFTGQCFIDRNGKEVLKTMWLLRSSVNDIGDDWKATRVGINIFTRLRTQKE
Method: The receptor, ImmunoPure® avidin (Pierce), was outfitted with xanthone as an ET-sensitizer. The N-hydroxysuccinimide ester of 11-(xanthone-2-carboxamido)undecanoic acid was coupled to avidin in a 20 mM sodium phosphate buffer according to a described procedure (Wilchek, Methods Enzymol), with subsequent purification on a Sephadex G-25 column. […] Tethering the xanthone-based sensitizer to avidin is no different from outfitting a receptor with a fluorophore for the conventional on-the-bead fluorescence-guided assays.
The screening volume was compartmentalized with micellar detergent, dodecyl phosphocholine (DPC), preventing indiscriminant collisional quenching of avidin-tethered xanthone by unbound molecules and thus limiting the ET sensitization exclusively to the bound host-guest complex. Besides the fact that amphiphiles displaying phosphocholine are common in biological settings, utilization of DPC micelles offers a number of additional benefits: (i) it ensures that the screening is always compatible with aqueous media, regardless of aqueous solubility of the tested libraries; (ii) it allows the design of the tagging system to be centered around readily available hydrophobic alkyl dithianes, which can be selectively extracted after irradiation with hexane or other non-polar solvents for unobstructed GCMS analysis; (iii) it spatially segregates the photofragmentation chemistry from molecular recognition, eliminating potential interference between them; (iv) it restricts the photochemistry to the micelle interior improving quantum efficiency of fragmentation, as it is known to increase in the non-polar environment; and, finally, (v) the micelle-assisted design offers an option of solubilizing certain target proteins, which are not water soluble. While not an issue with avidin, this functionality may be important in assaying insoluble membrane proteins, as recognized in the art.
A typical screening procedure involved solubilization of the mini-library, approximately 0.5 mg per tagged compound, in a 0.6 mL aqueous solution containing 60 mg of DPC. To this clear micellar solution 0.5 mL of avidin-xanthone conjugate was added, so the final concentrations were 0.7 mM of each library member carrying one tag (6.3 mM total), 23 μM protein and 155 mM DPC. The micelle-embedded molecules had apparent translational diffusion coefficients of 7×10^−7 cm^2s^−1, as measured with spin-echo pulse field gradient (PFG) ^1H NMR. […] Then the mixture was extracted with 0.5 mL of hexane, concentrated to 100 μL and analyzed by GCMS.
The generality of this approach is not limited to the tagging assemblies based on dithiane-aldehyde adducts. […] None of the other six dithianes were detected in the hexane extract after irradiation. […]

[2] = Benzophenone-sensitized photofragmentation of triazole 22 and its photostability without sensitizer; assay type: physicochemical
Method: To this end 3a was coupled with propargyl amine, providing the acetylenic tagging component S20 for the azide-acetylene click pair. Another readily available tag series was prepared from commercially available acetylenic benzaldehyde as shown in Scheme 12. The Staudinger ligation produces the benzamide linkage, found in compounds 4, 6 and 10, for example. Acetylene-azide click chemistry yields triazoles. […] Triazole 22 was unchanged after prolonged irradiation in the absence of the ET-sensitizer, showing no self-cleavage at wavelengths above 330 nm. This is a critically important finding because premature self-cleavage is detrimental to screening, as it produces false positives.

## NCCCCCCCCCCC(=O)O [aminoundecanoic acid, 11-aminoundecanoic acid]
[1]
  dithiane tags encoding the library member detected in the GCMS chromatogram after the photolytic assay: not discernible at all

## O=C(O)CCCC[C@@H]1SC[C@@H]2NC(=O)N[C@@H]21 [biotin]
[1]
  dithiane tags encoding the library member detected in the GCMS chromatogram after the photolytic assay: detected
[1]; mini-library tagged with nine thio ortho esters (19), three tags per member, DPC micellar solution, avidin-xanthone conjugate
  dithianes encoding the library member detected in the GCMS trace of the hexane extract after irradiation: showed only the dithianes encoding biotin

## COC(=O)CCCCCCCCCn1cc(-c2ccc(C(O)C3(C)SCCCS3)cc2)nn1 (stereo not drawn) [compound 22]
[2]; prolonged irradiation in the absence of the ET-sensitizer, wavelengths above 330 nm
  stability to irradiation (self-cleavage): unchanged
[2]; upon benzophenone sensitization, compared with the parent (unsubstituted) benzaldehyde adduct
  quantum efficiency of methyl dithiane release: very similar to the parent (unsubstituted) benzaldehyde adduct

## N[C@H]1C(O)O[C@H](CO)[C@@H](O)[C@@H]1O (stereo partly drawn) [glucosamine]
[1]
  dithiane tags encoding the library member detected in the GCMS chromatogram after the photolytic assay: not discernible at all

— patent US20090247420A1, “METHOD FOR ENCODING AND SCREENING COMBINATORIAL LIBRARIES” (priority 2005, published 2009)
